{"source": "patent US7759366B2", "about": "(Sanofi-Aventis, priority 2006, dated 2010)"}
{"target": "T1, hCB1R (Homo sapiens, UniProt P21554)", "T1 sequence (P21554 whole entry)": "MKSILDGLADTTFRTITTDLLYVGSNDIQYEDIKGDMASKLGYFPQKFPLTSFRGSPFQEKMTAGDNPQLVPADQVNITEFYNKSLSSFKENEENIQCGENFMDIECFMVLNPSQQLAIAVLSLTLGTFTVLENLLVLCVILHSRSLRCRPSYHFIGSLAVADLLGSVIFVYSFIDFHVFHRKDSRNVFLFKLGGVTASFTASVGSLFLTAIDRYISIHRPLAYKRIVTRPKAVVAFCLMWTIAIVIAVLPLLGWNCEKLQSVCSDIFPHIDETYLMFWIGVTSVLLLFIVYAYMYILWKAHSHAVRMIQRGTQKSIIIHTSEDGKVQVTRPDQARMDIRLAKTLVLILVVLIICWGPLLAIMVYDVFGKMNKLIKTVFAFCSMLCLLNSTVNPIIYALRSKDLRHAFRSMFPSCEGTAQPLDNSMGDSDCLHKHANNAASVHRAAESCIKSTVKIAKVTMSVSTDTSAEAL", "assay": "Binding to the CB1 receptor ([3H]-SR141716A displacement)", "conditions": "CHO-K1/cannabinoid CB1 protein 2 μg/well; [3H]-SR141716A 0.5 nM; Ki from IC50 by Cheng-Prusoff; average of double determination; read-out: hCB1R; binding Ki", "description": "Binding to the CB1 Receptor:\nTest compounds: The compounds (3 μl, 10 mM, 100% DMSO), pipetted into 96-well PP microtiter plates, were diluted with 27 μl of 100% DMSO (dimethyl sulfoxide). Proceeding from this solution, further 3-fold dilution steps were undertaken by transferring 10 μl in each case to a new PP microtiter plate and adding a further 20 μl of 100% DMSO. In each case 6 μl of these solutions were transferred into new 96-well PP microtiter plates and made up with 144 μl of assay buffer. The end concentrations ranged from 10 μM to 0.005 μM. Negative control: AM 251, dissolved in assay buffer with 1% DMSO, was added to the dilution series in the microtiter plates as a control. The end concentration was 1 μM. Blank control: assay buffer with 1% DMSO was added to the dilution series of the microtiter plates as a blank control.\nSummary of the Assay Parameters:\nHigh control: ^3H binding without addition of the compound\nLow control: ^3H binding in the presence of 1 μM AM 251\nThe values were calculated using the corrected raw data.\nThe values reported were obtained as average values of a double determination. The IC50 values were calculated from the measurements with the program Xlfit, formula 205. Ki values were obtained from the IC50 and Kd values utilizing the Cheng-Prusoff equation: […]\nLiterature: Cheng, Y.-C., and Prusoff, W. H. (1973) Biochem. Pharmacol 22, 3099-3108", "units": {"Ki": "µM"}}
{"compound": "CC1(C)C(=O)N(c2ccc(C#N)nc2)C(=O)N1Cc1ccccc1Nc1ccc(F)cc1F", "note": "[Example 70, 5-{3-[2-(2,4-difluorophenylamino)benzyl]-4,4-dimethyl-2,5-dioxoimidazolidin-1-yl}pyridine-2-carbonitrile]", "Ki": 0.027}
{"target": "T1, hCB1R", "assay": "In vitro functional assay (FLIPR, intracellular Ca2+) with recombinant HEK293 cells, CB1", "type": "cell-based", "design": "expressed in transfected cells; host or cells: HEK293", "conditions": "recombinant HEK293 cells expressing CB1 and Galpha16; 20 min preincubation, then reference agonist; Ca2+ change; read-out: hCB1R: FLIPR; IC50", "excerpt": "In Vitro Functional Assays with Recombinant Cells:", "units": {"IC50": "µM"}}
{"compound": "CC1(C)C(=O)N(c2ccc(F)c(C(F)(F)F)c2)C(=O)N1Cc1ccc(F)cc1Nc1ccc2c(c1)C(=O)CCO2", "note": "[Example 239, 1-[4-fluoro-2-(4-oxochroman-6-ylamino)benzyl]-3-(4-fluoro-3-trifluoromethylphenyl)-5,5-dimethylimidazolidine-2,4-dione]", "IC50": 0.103}
{"compound": "CC(=O)Nc1ccc(Nc2ccccc2CN2C(=O)N(c3ccc(C#N)c(C(F)(F)F)c3)C(=O)C2(C)C)cc1", "note": "[Example 148, N-(4-{2-[3-(4-Cyano-3-trifluoromethylphenyl)-5,5-dimethyl-2,4-dioxoimidazolidin-1-ylmethyl]phenylamino}phenyl)acetamide]", "IC50": 0.011}
{"compound": "COC(=O)c1ccc(Nc2cc(Cl)cc(Cl)c2CN2C(=O)N(c3ccc(C#N)c(C(F)(F)F)c3)C(=O)C2(C)C)cc1", "note": "[Example 104, methyl 4-{3,5-dichloro-2-[3-(4-cyano-3-trifluoromethylphenyl)-5,5-dimethyl-2,4-dioxoimidazolidin-1-ylmethyl]phenylamino}benzoate]", "IC50": 0.015}
{"compound": "COC(=O)C1=C[C@@H](OC(C)=O)[C@H](OC(C)=O)[C@@H](Oc2ccc(Nc3ccccc3CN3C(=O)N(c4ccc(C#N)c(C(F)(F)F)c4)C(=O)C3(C)C)cc2)O1", "note": "[Example 197, methyl (4R,5S,6S)-4,5-diacetoxy-6-(4-{2-[3-(4-cyano-3-trifluoromethylphenyl)-5,5-dimethyl-2,4-dioxoimidazolidin-1-ylmethyl]phenylamino}phenoxy)-5,6-dihydro-4H-pyran-2-carboxylate]", "IC50": 0.019}
{"compound": "Cc1cc(N2C(=O)N(Cc3ccc(F)cc3Nc3ccc(C(N)=O)cc3)C(C)(C)C2=O)ccc1C#N", "note": "[Example 190, 4-{2-[3-(4-Cyano-3-methylphenyl)-5,5-dimethyl-2,4-dioxoimidazolidin-1-ylmethyl]-5-fluorophenylamino}benzamide]", "IC50": 0.076}
{"compound": "CC1(C)C(=O)N(c2ccc(C#N)c(C(F)(F)F)c2)C(=O)N1Cc1cc(Cl)ccc1Nc1ccc(F)cc1", "note": "[Example 41, 4-{3-[5-Chloro-2-(4-fluorophenylamino)benzyl]-4,4-dimethyl-2,5-dioxoimidazolidin-1-yl}-2-trifluoromethylbenzonitrile]", "IC50": 0.028}
{"compound": "CC1(C)C(=O)N(c2ccc(C#N)c(-c3ccc(F)cc3)c2)C(=O)N1Cc1ccc(F)cc1Nc1ccc(C(=O)O)cc1", "note": "[Example 258, 4-{2-[3-(6-Cyano-4′-fluorobiphenyl-3-yl)-5,5-dimethyl-2,4-dioxoimidazolidin-1-ylmethyl]-5-fluorophenylamino}benzoic acid]", "IC50": 0.031}
{"compound": "CC1(C)C(=O)N(c2ccc(F)c(C(F)(F)F)c2)C(=O)N1Cc1ccc(F)cc1Nc1ccc(S(C)(=O)=O)cc1", "note": "[Example 213, 1-[4-fluoro-2-(4-methanesulfonylphenylamino)benzyl]-3-(4-fluoro-3-trifluoromethylphenyl)-5,5-dimethylimidazolidine-2,4-dione]", "IC50": 0.117}
{"compound": "COc1ncc(Nc2ccccc2CN2C(=O)N(c3ccc(C#N)c(C(F)(F)F)c3)C(=O)C2(C)C)cn1", "note": "[Example 180, 4-{3-[2-(2-methoxypyrimidin-5-ylamino)benzyl]-4,4-dimethyl-2,5-dioxoimidazolidin-1-yl}-2-trifluoromethylbenzonitrile]", "IC50": 0.001}
{"compound": "CC1(C)C(=O)N(c2ccc(C#N)c(C(F)(F)F)c2)C(=O)N1Cc1ccccc1Nc1ccc(C(=O)NCCS(=O)(=O)O)cc1", "note": "[Example 164, 2-(4-{2-[3-(4-Cyano-3-trifluoromethylphenyl)-5,5-dimethyl-2,4-dioxoimidazolidin-1-ylmethyl]phenylamino}benzoylamino)ethanesulfonic acid]", "IC50": 0.137}
{"compound": "COc1ccc(CN2C(=O)N(c3ccc(C#N)c(C(F)(F)F)c3)C(=O)C2(C)C)c(Nc2ccc(C(=O)O)cc2)c1", "note": "[Example 130, 4-{2-[3-(4-cyano-3-trifluoromethylphenyl)-5,5-dimethyl-2,4-dioxoimidazolidin-1-ylmethyl]-5-methoxyphenylamino}benzoic acid]", "IC50": 0.032}
{"compound": "CC1(C)C(=O)N(c2ccc(C#N)c(C(F)(F)F)c2)C(=O)N1Cc1ccccc1Nc1ccc(C#N)c(C(F)(F)F)c1", "note": "[Example 3, 4-{3-[2-(4-cyano-3-trifluoromethylphenylamino)benzyl]-4,4-dimethyl-2,5-dioxoimidazolidin-1-yl}-2-trifluoromethylbenzonitrile]", "IC50": 0.022}
{"compound": "COC(=O)c1ccc(Nc2cc(C(F)(F)F)ccc2CN2C(=O)N(c3ccc(C#N)c(C(F)(F)F)c3)C(=O)C2(C)C)cc1", "note": "[Example 106, methyl 4-{2-[3-(4-cyano-3-trifluoromethylphenyl)-5,5-dimethyl-2,4-dioxoimidazolidin-1-ylmethyl]-5-trifluoromethylphenylamino}benzoate]", "IC50": 0.012}
{"compound": "CC1(C)C(=O)N(c2ccc(C#N)c(C(F)(F)F)c2)C(=O)N1Cc1ccccc1Nc1ccc(Cl)c(Cl)c1", "note": "[Example 20, 4-{3-[2-(3,4-dichlorophenylamino)benzyl]-4,4-dimethyl-2,5-dioxoimidazolidin-1-yl}-2-trifluoromethylbenzonitrile]", "IC50": 0.021}
{"compound": "COC(=O)CNc1ccc(Nc2ccccc2CN2C(=O)N(c3ccc(C#N)c(C(F)(F)F)c3)C(=O)C2(C)C)cc1", "note": "[Example 177, Methyl (4-{2-[3-(4-cyano-3-trifluoromethylphenyl)-5,5-dimethyl-2,4-dioxoimidazolidin-1-ylmethyl]phenylamino}phenylamino)acetate]", "IC50": 0.001}
{"compound": "CC1(C)C(=O)N(c2ccc(C#N)c(C(F)(F)F)c2)C(=O)N1Cc1ccccc1Nc1ccc(Cl)cc1", "note": "[Example 4, 4-{3-[2-(4-chlorophenylamino)benzyl]-4,4-dimethyl-2,5-dioxoimidazolidin-1-yl}-2-trifluoromethylbenzonitrile]", "IC50": 0.004}
{"compound": "CC1(C)C(=O)N(c2ccc(C#N)c(C(F)(F)F)c2)C(=O)N1Cc1cc(Cl)cc(Cl)c1Nc1ccc(Cl)cc1", "note": "[Example 40, 4-{3-[3,5-dichloro-6-(4-chlorophenylamino)benzyl]-4,4-dimethyl-2,5-dioxoimidazolidin-1-yl}-2-trifluoromethylbenzonitrile]", "IC50": 0.03}
{"compound": "CC1(C)C(=O)N(c2ccc(C#N)c(C(F)(F)F)c2)C(=O)N1Cc1c(Cl)cc(Cl)cc1Nc1ccc(C(=O)O)cc1", "note": "[Example 105, 4-{3,5-dichloro-2-[3-(4-cyano-3-trifluoromethylphenyl)-5,5-dimethyl-2,4-dioxoimidazolidin-1-ylmethyl]phenylamino}benzoic acid]", "IC50": 0.049}
{"compound": "COC(=O)c1ccc(Nc2cc(F)ccc2CN2C(=O)N(c3ccc(F)c(C(F)(F)F)c3)C(=O)C2(C)C)cc1", "note": "[Example 154, Methyl 4-{5-fluoro-2-[3-(4-fluoro-3-trifluoromethylphenyl)-5,5-dimethyl-2,4-dioxoimidazolidin-1-ylmethyl]phenylamino}benzoate]", "IC50": 0.008}
{"compound": "CC1(C)C(=O)N(c2ccc(C#N)c(C(F)(F)F)c2)C(=O)N1Cc1ccccc1Nc1cnc(O)nc1O", "note": "[Example 246, 4-{3-[2-(2,4-Dihydroxypyrimidin-5-ylamino)benzyl]-4,4-dimethyl-2,5-dioxoimidazolidin-1-yl}-2-trifluoromethylbenzonitrile]", "IC50": 0.007}
{"compound": "COC(=O)c1ccc(Nc2cc(F)ccc2CN2C(=O)N(c3ccc(C#N)c(C4CC4)c3)C(=O)C2(C)C)cc1", "note": "[Example 158, Methyl 4-{2-[3-(4-cyano-3-cyclopropylphenyl)-5,5-dimethyl-2,4-dioxoimidazolidin-1-ylmethyl]-5-fluorophenylamino}benzoate]", "IC50": 0.009}
{"compound": "CC1(C)C(=O)N(c2ccc(C#N)c(C(F)(F)F)c2)C(=O)N1Cc1ccccc1Nc1ccc(C(=O)O)c(O)c1", "note": "[Example 243]", "IC50": 0.099}
{"compound": "COC(=O)CN(CC(=O)OC)c1ccc(Nc2ccccc2CN2C(=O)N(c3ccc(C#N)c(C(F)(F)F)c3)C(=O)C2(C)C)cc1", "note": "[Example 178]", "IC50": 0.004}
{"compound": "Cc1cc(N2C(=O)N(Cc3ccc(F)cc3Nc3ccc(C(=O)O)cc3)C(C)(C)C2=O)ccc1C#N", "note": "[Example 166, 4-{2-[3-(4-cyano-3-methylphenyl)-5,5-dimethyl-2,4-dioxoimidazolidin-1-ylmethyl]-5-fluorophenylamino}benzoic acid]", "IC50": 0.076}
{"compound": "CC1(C)C(=O)N(c2ccc(C#N)c(C(F)(F)F)c2)C(=O)N1Cc1cccc(Cl)c1Nc1ccc(Cl)cc1", "note": "[Example 43, 4-{3-[5-chloro-6-(4-chlorophenylamino)benzyl]-4,4-dimethyl-2,5-dioxoimidazolidin-1-yl}-2-trifluoromethylbenzonitrile]", "IC50": 0.077}
{"compound": "CC(C(=O)O)(C(=O)O)c1ccc(Nc2ccccc2CN2C(=O)N(c3ccc(C#N)c(C(F)(F)F)c3)C(=O)C2(C)C)cc1", "note": "[Example 233, 2-(4-{2-[3-(4-Cyano-3-trifluoromethylphenyl)-5,5-dimethyl-2,4-dioxoimidazolidin-1-ylmethyl]phenylamino}phenyl)-2-methylmalonic acid]", "IC50": 0.022}
